Experimental data as given in patent publication US5698560A, “Imidazoquinazoline derivatives” (Kyowa Hakko Kogyo Co., Ltd., priority 1995, dated 1997).
Where a name gives a salt, the structure may show the parent alone.

Experiments:
[1] = target: T1, PDE V (cGMP-specific PDE) (Canis lupus familiaris, UniProt O77746); assay: inhibitory activity on PDE V derived from canine tracheal smooth muscle; assay type: biochemical; conditions: 1 nM compound; substrate 1.0 μM [3H]cGMP; pH 7.2; 30° C., 10 to 30 minutes; inhibitor dissolved in 1.7% DMSO; read-out: PDE V Inhibitory activity, inhibition rate (%)
T1 construct: PDE V (cGMP-specific PDE) was purified from canine tracheal smooth muscle; from tissue; host or cells: canine tracheal smooth muscle
Method: The inhibitory activity on PDE derived from canine tracheal smooth muscle
According to the method of Torphy et al. [Mol. Pharmacol., 37, 206 (1990)], PDE V (cGMP-specific PDE) was purified from canine tracheal smooth muscle.
The activity was measured based on the method of Kincaid et al. [J. D. Corbin et al., Methods Enzymol., 159, 457 (1988), Academic Press, New York]. The measurement was carried out using, as a substrate, 1.0 μM [^3 H]cGMP, and the reaction was carried out in a buffer having the following composition:
50 mM N,N-bis(2-hydroxyethyl)-2-aminoethanesulfonic acid (pH 7.2), 1 mM MgCl2, 0.1 mg/ml soybean trypsin inhibitor
The reaction was started by addition of an enzyme and stopped by addition of hydrochloric acid after 10 to 30 minutes at 30° C. Thereafter, sodium hydroxide was added for neutralization and 5'-GMP was converted into guanosine using 5'-nucleotidase. The reaction solution was subjected to DEAE-Sephadex A-25 column. [^3 H]Guanosine was eluted with distilled water and the radioactivity was measured with a liquid scintillation counter. The inhibitor was dissolved in 1.7% DMSO.

rats = assay: hypotensive effect in anesthetized rats (duodenal administration); assay type: in vivo, male Sprague-Dawley rat; conditions: rat, i.d., within 30 minutes, average of N = 2
Method: The hypotensive effect in rats
After a male Sprague-Dawley rat anesthetized with urethane was fixed in the supine position, a cannula was inserted into trachea and the rat was artificially ventilated under the conditions of a tidal volume of […] and 60 breathes/min. The carotid artery and the duodenum were cannulated for measuring blood pressure and administering a drug, respectively. The drug was dissolved in distilled water and administered duodenally using the above cannula. Mean blood pressure (mBP) until 30 minutes after the drug-administration was measured and the maximum loweing rate (%) from the value before the drug-administration (100%) was determined. The average value of 2 samples was calculated in each dose. No change of mBP was observed during 30 minutes in case of administering distilled water.

inhibition at 0.001 µM [1] [%] | Compound | Hypotensive activity, Maximum lowering rate (%) of mean blood pressure (mBP) (rats; 0.1 mg/kg) [%] | Hypotensive activity, Maximum lowering rate (%) of mean blood pressure (mBP) (rats; 1 mg/kg) [%] | Hypotensive activity, Maximum lowering rate (%) of mean blood pressure (mBP) (rats; 10 mg/kg) [%]
79 | CCn1c(=S)[nH]c2cc3c(NCc4ccccc4OCCN4CCN(C)CC4)ncnc3cc21 [Compound 32, 3-Ethyl-8-{2-[2-(4-methylpiperazin-1-yl)ethoxy]benzylamino}-2,3-dihydro-1H-imidazo[4,5-g]quinazoline-2-thione.3 hydrochloride] | – | – | –
89 | CCn1c(=S)[nH]c2cc3c(NCc4ccc(OCCN5CCOCC5)cc4)ncnc3cc21 [Compound 42, 3-Ethyl-8-[4-(2-morpholinoethoxy)benzylamino]-2,3-dihydro-1H-imidazo[4,5-g]quinazoline-2-thione.2 hydrochloride] | – | – | –
97 | CCn1c(=S)[nH]c2cc3c(NCc4ccccc4CN4CC=CCC4)ncnc3cc21 [Compound 71, 3-Ethyl-8-[2-(1,2,3,6-tetrahydropyridin-1-ylmethyl)benzylamino]-2,3-dihydro-1H-imidazo[4,5-g]quinazoline-2-thione.2 hydrochloride] | 16.1 | 22.8 | 23.2
92 | CCOC(=O)C1CCN(Cc2ccccc2CNc2ncnc3cc4c(cc23)[nH]c(=S)n4CC)CC1 [Compound 75, 3-Ethyl-8-{2-[4-(ethoxycarbonyl)piperidin-1-ylmethyl]benzylamino}-2,3-dihydro-1H-imidazo[4,5-g]quinazoline-2-thione.2 hydrochloride] | – | – | –
88 | CCOC(=O)C1CCN(Cc2ccccc2CNc2ncnc3cc4c(cc23)[nH]c(=O)n4CC)CC1 [Compound 76, 3-Ethyl-8-{2-[4-(ethoxycarbonyl)piperidin-1-ylmethyl]benzylamino}-2,3-dihydro-1H-imidazo[4,5-g]quinazolin-2-one.2 hydrochloride] | – | – | –
95 | CCn1c(=S)[nH]c2cc3c(NCc4cccc(OCCCN5CCOCC5)c4)ncnc3cc21 [Compound 79, 3-Ethyl-8-[3-(3-morpholinopropoxy)benzylamino]-2,3-dihydro-1H-imidazo[4,5-g]quinazoline-2-thione.2 hydrochloride] | – | – | –
92 | CCN(CC)CCCOc1cccc(CNc2ncnc3cc4c(cc23)[nH]c(=S)n4CC)c1 [Compound 80, 8-{3-[3-(Diethylamino)propoxy]benzylamino}-3-ethyl-2,3-dihydro-1H-imidazo[4,5-g]quinazoline-2-thione.2 hydrochloride] | – | – | –

Further lines, the molecule ahead of its results:

Compound | inhibition at 0.001 µM [1] [%] | Hypotensive activity, Maximum lowering rate (%) of mean blood pressure (mBP) (rats; 0.1 mg/kg) [%] | Hypotensive activity, Maximum lowering rate (%) of mean blood pressure (mBP) (rats; 1 mg/kg) [%] | Hypotensive activity, Maximum lowering rate (%) of mean blood pressure (mBP) (rats; 10 mg/kg) [%]
CCn1c(=O)[nH]c2cc3c(NCc4ccccc4CN4CCOCC4)ncnc3cc21 [Compound 1, 3-Ethyl-8-[2-(morpholinomethyl)benzylamino]-2,3-dihydro-1H-imidazo[4,5-g]quinazolin-2-one.2 hydrochloride] | 74 | – | – | –
CCn1c(=S)[nH]c2cc3c(NCc4ccccc4CN4CCOCC4)ncnc3cc21 [Compound 4, 3-Ethyl-8-[2-(morpholinomethyl)benzylamino]-2,3-dihydro-1H-imidazo[4,5-g]quinazoline-2-thione.2 hydrochloride] | 97 | 9.0 | 21.5 | 25.1
CCn1c(=S)[nH]c2cc3c(NCc4ccc(CN5CCCCC5)cc4)ncnc3cc21 [Compound 15, 3-Ethyl-8-[4-(piperidinomethyl)benzylamino]-2,3-dihydro-1H-imidazo[4,5-g]quinazoline-2-thione.2 hydrochloride] | 63 | – | – | –
CCn1c(=O)[nH]c2cc3c(NCc4ccccc4OCCN4CCOCC4)ncnc3cc21 [Compound 21, 3-Ethyl-8-[2-(2-morpholinoethoxy)benzylamino]-2,3-dihydro-1H-imidazo[4,5-g]quinazolin-2-one.2 hydrochloride] | 29 | – | – | –
CCn1c(=S)[nH]c2cc3c(NCc4ccccc4OCCN4CCOCC4)ncnc3cc21 [Compound 29, 3-Ethyl-8-[2-(2-morpholinoethoxy)benzylamino]-2,3-dihydro-1H-imidazo[4,5-g]quinazoline-2-thione.2 hydrochloride] | 91 | – | – | –
